# Laboratory results published in paper PMC9598656, “In Vitro Activity of Robenidine Analogues NCL259 and NCL265 against Gram-Negative Pathogens” (Antibiotics, 2022).
# Experiments:
# P. aeruginosa PAO1 [1] = assay: MIC, broth micro-dilution; format: cell-based, Pseudomonas aeruginosa; conditions: Pseudomonas aeruginosa, read-out: MIC, Single Drug
# Procedure: (§1) A variety of Gram-negative reference strains (E. coli ATCC 25922, E. coli ATCC 10763, P. aeruginosa PAO1, P. aeruginosa ATCC 27853, A. baumannii ATCC 12457, A. baumannii ATCC 19606, K. pneumoniae ATCC 4352 and K. pneumoniae ATCC 33495) were used for initial screening and combination testing with PMB. The organisms were speciated using biochemical testing and MALDI-TOF mass spectrometry (Bruker, Preston, VIC, Australia). Activity testing of NCL259 and NCL265 was also carried out on 51 extraintestinal clinical E. coli isolates from companion animals, and 83 porcine and bovine enterotoxigenic E. coli (ETEC) isolates from the Australian Centre for Antimicrobial Resistance Ecology collection. E. coli wild-type (BW 25113) and its mutant BW 25113∆AcrB, in which the inner membrane component AcrB of the tripartite multidrug efflux system AcrA/AcrB/TolC has been deleted, were obtained from the bacterial collection held at Health and Biomedical Innovation, Clinical and Health Sciences, The University of South Australia. All isolates were cultured on sheep blood agar (SBA) plates at 37 °C for 18 h before being subcultured into Luria Bertaini (LB) (Oxoid, Scoresby, VIC, Australia) broth and grown to A600nm = 0.5 (equivalent to approx. 1.5 × 10^8 colony-forming units (CFU)/mL).
# (§2) MICs for NCL259 and NCL265 (serial two-fold dilutions commencing at 256 µg/mL) were determined (in duplicate) in round bottom 96–well microtitre trays (Sarstedt 82.1582.001), using the broth micro-dilution method recommended by the Clinical and Laboratory Standards Institute (CLSI). We have shown previously that robenidine can chelate calcium ions from cation-adjusted Mueller-Hinton broth, which causes the loss of activity of robenidine. Therefore, LB broth was used in this study. Additionally, considering the low solubility of robenidine and its analogues in aqueous solutions, two-fold serial dilutions of stock solutions of these compounds were prepared in 100% DMSO [21]. The MIC for ampicillin against each isolate was determined for each test to serve as an internal quality control. The MICs of isolates were determined by visual reading and using an EnSpire Multimode Plate Reader 2300 at A600nm.
# P. aeruginosa ATCC 27853 [2] = assay: MIC, broth micro-dilution; format: cell-based, Pseudomonas aeruginosa; conditions: Pseudomonas aeruginosa, ATCC27853, read-out: MIC, Single Drug
# Procedure: as §1, §2
# [3] = system: 51 clinical ExPEC isolates from companion animals and 83 porcine and bovine ETEC isolates; assay: MIC, broth micro-dilution, all animal clinical isolates; format: cell-based, Escherichia coli; conditions: ExPEC and ETEC isolates together
# Procedure: A variety of Gram-negative reference strains (E. coli ATCC 25922, E. coli ATCC 10763, P. aeruginosa PAO1, P. aeruginosa ATCC 27853, A. baumannii ATCC 12457, A. baumannii ATCC 19606, K. pneumoniae ATCC 4352 and K. pneumoniae ATCC 33495) were used for initial screening and combination testing with PMB. The organisms were speciated using biochemical testing and MALDI-TOF mass spectrometry (Bruker, Preston, VIC, Australia). Activity testing of NCL259 and NCL265 was also carried out on 51 extraintestinal clinical E. coli isolates from companion animals, and 83 porcine and bovine enterotoxigenic E. coli (ETEC) isolates from the Australian Centre for Antimicrobial Resistance Ecology collection. […]
# MICs for NCL259 and NCL265 (serial two-fold dilutions commencing at 256 µg/mL) were determined (in duplicate) in round bottom 96–well microtitre trays (Sarstedt 82.1582.001), using the broth micro-dilution method recommended by the Clinical and Laboratory Standards Institute (CLSI). […] The MIC for ampicillin against each isolate was determined for each test to serve as an internal quality control. The MICs of isolates were determined by visual reading and using an EnSpire Multimode Plate Reader 2300 at A600nm.
# P. aeruginosa PAO1 [4] = assay: Checkerboard assay with PMB; format: cell-based, Pseudomonas aeruginosa; conditions: for MIC, Combination: NCL259 or NCL265 with PMB; for Combination Effect / FICI: with PMB
# Procedure: (§3) MICs of NCL259 or NCL265 in the presence of the efflux pump inhibitor, PAβN were determined using a checkerboard assay. […] Briefly, a two-fold serial dilution of each antimicrobial solution was prepared in its appropriate solvent (e.g., DMSO for robenidine analogues and Milli-Q water for PAβN), and 1 μL of each dilution was added from wells 12 to 3 (12.8–0.25 μg/mL for robenidine analogues, and 32–2 μg/mL for PAβN). Thereafter, 89 μL of LB broth was added to each well followed by the addition of 10 μL of bacterial suspension (1–5 × 10^6 CFU/mL) to each well. In this manner, the final concentration of DMSO in each well was 1%. The plate was subsequently incubated at 37 °C for 24 h. The resazurin assay was used for assessment of drug susceptibility of NCL259 and NCL265 (Supplementary Table S1–S6). The same method was also used to test the MICs of NCL259 or NCL265 in the presence of PMB against a range of Gram-negative reference strains (E. coli ATCC 25922, E. coli ATCC 10763, P. aeruginosa PAO1, P. aeruginosa ATCC 27853, A. baumannii ATCC 12457, A. baumannii ATCC 19606, K. pneumoniae ATCC 4352 and K. pneumoniae ATCC 33495). Stock solutions were prepared prior to use (25.6–0.25 mg/mL for robenidine analogues; 12.8–0.25 mg/mL for PMB). The interaction of two antibiotics was calculated as the fractional inhibitory concentration index (FICI) using the following formula:(1) FICI=MICA in combination/MICA alone+MICB in combination/MICB alone where A is NCL259 or NCL265 and B is PAβN or PMB. According to FICI calculations, the interaction between two compounds were interpreted as follows: synergistic (FICI ≤ 0.5); additive or partially synergistic (0.5 < FICI ≤ 1); indifferent (1 < FICI ≤ 4); and antagonistic (FICI > 4), as described previously. The dose reduction index (DRI) was used to describe the difference between the effective doses of NCL259 or NCL265 in combination with PMB or PAβN in comparison to their individual doses, using the following formula:(2) DRI=MICA alone/MICA in combination
# (§4) Evaluation of DRI is important clinically because it can allow the dose of a potentially toxic drug to be lowered in combination with another compound without reducing the drug’s efficacy. A DRI higher than 1 is viewed as beneficial.
# P. aeruginosa ATCC 27853 [5] = assay: Checkerboard assay with PMB; format: cell-based, Pseudomonas aeruginosa; conditions: for MIC, Combination: NCL259 or NCL265 with PMB; for Combination Effect / FICI: with PMB
# Procedure: as §3, §4
# [6] = system: E. coli-type strains ATCC 11229 and ATCC 25922; design: method as in PMID 30318716, PMID 31312589; conditions: E. coli ATCC 11229 and ATCC 25922; cited from earlier work
# A. baumannii ATCC 19606 = assay: MIC, broth micro-dilution; format: cell-based, Acinetobacter baumannii; conditions: Acinetobacter baumannii, ATCC19606, read-out: MIC, Single Drug
# Procedure: as §1, §2
# A. baumannii ATCC 12457 = assay: MIC, broth micro-dilution; format: cell-based, Acinetobacter baumannii; conditions: Acinetobacter baumannii, ATCC12457, read-out: MIC, Single Drug
# Procedure: as §1, §2
# [7] = system: Wild-type (E. coli BW 25113); assay: MIC, efflux-pump wild-type; format: cell-based; conditions: Escherichia coli, read-out: MIC Values
# Procedure: as §1
# as §2, with “Additionally, considering the low solubility of robenidine and its analogues in aqueous solutions, two-fold serial dilutions of stock solutions of these compounds were prepared in 100% DMSO [21].” left out
# [8] = system: K. pneumoniae 13GNB–429, K. pneumoniae 13GNB–550 and K. oxytoca 13GNB–582; assay: MIC in presence of PAβN, three resistant Klebsiella isolates; format: cell-based; conditions: three resistant Klebsiella spp. isolates
# Procedure: as §3
# K. pneumoniae ATCC 4352 = system: K. pneumoniae ATCC 4352; design: method as in PMID 30318716; conditions: after 30 min treatment; cited from earlier work
SMILES,MIC (P. aeruginosa PAO1 [1]) [µg/mL],MIC (P. aeruginosa ATCC 27853 [2]) [µg/mL],MIC range [3] [µg/mL],"MIC, Combination (P. aeruginosa PAO1 [4]) [µg/mL]",Combination Effect (P. aeruginosa PAO1 [4]),FICI (P. aeruginosa PAO1 [4]),"MIC, Combination (P. aeruginosa ATCC 27853 [5]) [µg/mL]",Combination Effect (P. aeruginosa ATCC 27853 [5]),FICI (P. aeruginosa ATCC 27853 [5]),MBC [6] [µg/mL],MIC [6] [µg/mL],MIC (A. baumannii ATCC 19606) [µg/mL],MIC (A. baumannii ATCC 12457) [µg/mL],MIC [7] [µg/mL],MIC in the presence of PAβN [8] [µg/mL],reduction of MIC in the presence of PAβN [8],reduction in CFU (bactericidal) (K. pneumoniae ATCC 4352) [log 10],other results
"[H]/N=C(\N)NN=C(CCCCCC)c1ccc(Cl)cc1 [NCL265, (E)-2-(1-(4-chlorophenyl)heptylidene)hydrazine-1-carboximidamide]",64,32,2 to 16,0.25,"Additivity (additive or partially synergistic, 0.5 < FICI ≤ 1)",0.504,0.5,"Additivity (additive or partially synergistic, 0.5 < FICI ≤ 1)",0.516,8 to 16,8 to 16,2,2,16,2 to 4,64- to 128 fold,> 5,Dose Reduction Index (DRI) PMB:NCL265 (P. aeruginosa PAO1 [4]; PMB + NCL265): 256; Dose Reduction Index (DRI) PMB:NCL265 (P. aeruginosa ATCC 27853 [5]; PMB + NCL265): 64
"[H]/N=C(\N)NN=C(CC1CCCCC1)c1ccc(Cl)cc1 [NCL259, (E)-2-(1-(4-chlorophenyl)-2-cyclohexylethylidene)hydrazine-1-carboximidamide]",64,64,4 to 64,1,"Additivity (additive or partially synergistic, 0.5 < FICI ≤ 1)",0.516,2,"Additivity (additive or partially synergistic, 0.5 < FICI ≤ 1)",0.531,8 to 16,8 to 16,8,8,64,8 to 16,16- to 32 fold,> 5,Dose Reduction Index (DRI) PMB:NCL259 (P. aeruginosa PAO1 [4]; PMB + NCL259): 64; Dose Reduction Index (DRI) PMB:NCL259 (P. aeruginosa ATCC 27853 [5]; PMB + NCL259): 32
